This passage reports IC50 results from patent publication US12465588B2, “Indole carboxamide derivative and pharmaceutical composition containing same” (KUKJE PHARMA CO., LTD., priority 2019, dated 2025).

Each structure is given as a SMILES string.

Usually IC50 stands for the concentration needed to halve the response being measured. Higher therefore signals weaker potency in that assay.

For this assay, the system named is A549 human lung cancer cells. As to the kind of experiment: Measurement of PGE2 in IL-1β-treated A549 human lung cancer cells. To be noted: PGE2 production, A549 cell, IL-1β 1 ng/mL, 48 hours. Type of assay: cell-based. As to the method:
Samples at various concentrations were added at 24 hours after A549 human lung cancer cells were seeded. After 1 hour, IL-1β of 1 ng/mL was added. The cells were cultured for 48 hours and then the culture supernatant was collected. PGE2 of the collected supernatant was measured according to the manufacturer's instructions using a PGE2 EIA kit.
`CC(C)C(=O)NCc1ccc(Cl)c(C(=O)Nc2ccc3c(c2)cc(C(=O)Nc2ccc(C(F)(F)F)cc2)n3C)c1` [Compound 8, 5-(2-chloro-5-(isobutyramidomethyl)benzamido)-1-methyl-N-(4-(trifluoromethyl)phenyl)-1H-indole-2-carboxamide] came in with a half-inhibitory concentration (IC50) of 5.22 nM.

Molecule `CC(C)C(=O)NCc1ccc(Cl)c(C(=O)Nc2ccc3c(c2)cc(C(=O)NCc2cccc(C(F)(F)F)c2)n3CC(F)(F)F)c1` [Compound 70, 5-(2-chloro-5-(isobutyramidomethyl)benzamido)-1-(2,2,2-trifluoroethyl)-N-(3-(trifluoromethyl)benzyl)-1H-indole-2-carboxamide] displayed an IC50 of 9.65 nM.

For `CC(C)C(=O)NCc1ccc(Cl)c(C(=O)Nc2ccc3c(c2)cc(C(=O)NCc2ccc(Cl)c(F)c2)n3CC(F)(F)F)c1` [Compound 71, N-(4-chloro-3-fluorobenzyl)-5-(2-chloro-5-(isobutyramidomethyl)benzamido)-1-(2,2,2-trifluoroethyl)-1H-indole-2-carboxamide], the IC50 is 20.1 nM.

`CC(C)C(=O)NCc1ccc(Cl)c(C(=O)Nc2ccc3c(c2)cc(C(=O)NC(C)c2ccc(C(F)(F)F)cc2)n3C)c1` (stereo not drawn) [Compound 47, 5-(2-chloro-5-(isobutyramidomethyl)benzamido)-1-methyl-N-(1-(4-(trifluoromethyl)phenyl)ethyl)-1H-indole-2-carboxamide] came in with an IC50 of 5.82 nM.

`CC(C)C(=O)NCc1ccc(Cl)c(C(=O)Nc2ccc3c(c2)cc(C(=O)NCc2ccc(C(C)(C)C)cc2)n3CC(F)(F)F)c1` [Compound 62, N-(4-(tert-butyl)benzyl)-5-(2-chloro-5-(isobutyramidomethyl)benzamido)-1-(2,2,2-trifluoroethyl)-1H-indole-2-carboxamide] registered an IC50 of 27.5 nM.

`CC(C)C(=O)NCc1ccc(Cl)c(C(=O)Nc2ccc3c(c2)cc(C(=O)N[C@H](C)c2ccc(OC(F)(F)F)cc2)n3C)c1` [Compound 59, (R)-5-(2-chloro-5-(isobutyramidomethyl)benzamido)-1-methyl-N-(1-(4-(trifluoromethoxy)phenyl)ethyl)-1H-indole-2-carboxamide] showed an IC50 of 9.5 nM.

`CC(C)C(=O)NCc1ccc(Cl)c(C(=O)Nc2ccc3c(c2)cc(C(=O)Nc2cc(-c4ccc(C(F)(F)F)cc4)n[nH]2)n3C)c1` [Compound 19, 5-(2-chloro-5-(isobutyramidomethyl)benzamido)-1-methyl-N-(3-(4-(trifluoromethyl)phenyl)-1H-pyrazole-5-yl)-1H-indole-2-carboxamide] returned an IC50 of over 100 nM.

`CC(C)C(=O)NCc1ccc(Cl)c(C(=O)Nc2ccc3[nH]c(C(=O)Nc4ccc(C(F)(F)F)cc4)cc3c2)c1` [Compound 75, 5-(2-chloro-5-(isobutyramidomethyl)benzamido)-N-(4-(trifluoromethyl)phenyl)-1H-indole-2-carboxamide] came in with an IC50 of 6.49 nM.

For `CC(C)C(=O)NCc1ccc(Cl)c(C(=O)Nc2ccc3c(c2)cc(C(=O)NCc2ccc(C(F)(F)F)cc2)n3CC(F)(F)F)c1` [Compound 64, 5-(2-chloro-5-(isobutyramidomethyl)benzamido)-1-(2,2,2-trifluoroethyl)-N-(4-(trifluoromethyl)benzyl)-1H-indole-2-carboxamide], it took 9.38 nM to reach half-maximal inhibition (IC50).

For `CC(C)C(=O)NCc1ccc(Cl)c(C(=O)Nc2ccc3c(c2)cc(C(=O)Nc2ccc(F)cc2)n3C)c1` [Compound 2, 5-(2-chloro-5-(isobutyramidomethyl)benzamido)-N-(4-fluorophenyl)-1-methyl-1H-indole-2-carboxamide], the IC50 turned out to be 237 nM. Compared with the last molecule, the IC50 is about 25-fold higher.

Consider `CC(C)C(=O)NCc1ccc(Cl)c(C(=O)Nc2ccc3c(c2)cc(C(=O)N[C@@H](C)c2ccc(Br)cc2)n3CC(F)(F)F)c1` [Compound 67, (S)—N-(1-(4-bromophenyl)ethyl)-5-(2-chloro-5-(isobutyramidomethyl)benzamido)-1-(2,2,2-trifluoroethyl)-1H-indole-2-carboxamide], for which it took 1.8 nM to reach half-maximal inhibition (IC50). Against the preceding molecule, the IC50 is about 130-fold lower.

Consider `CC(C)C(=O)NCc1ccc(Cl)c(C(=O)Nc2ccc3c(c2)cc(C(=O)Nc2cccc(Cl)c2)n3C)c1` [Compound 3, 5-(2-chloro-5-(isobutyramidomethyl)benzamido)-N-(3-chlorophenyl)-1-methyl-1H-indole-2-carboxamide], for which the IC50 was determined as 209 nM.

`CC(C)C(=O)NCc1ccc(Cl)c(C(=O)Nc2ccc3c(c2)cc(C(=O)NCc2ccccc2C(F)(F)F)n3CC(F)(F)F)c1` [Compound 63, 5-(2-chloro-5-(isobutyramidomethyl)benzamido)-1-(2,2,2-trifluoroethyl)-N-(2-(trifluoromethyl)benzyl)-1H-indole-2-carboxamide] registered an IC50 of 14.8 nM. Against the preceding molecule, the IC50 is about 14-fold lower.

Regarding `CC(C)C(=O)NCc1ccc(Cl)c(C(=O)Nc2ccc3c(c2)cc(C(=O)NCc2ccc(F)c(Cl)c2)n3C)c1` [Compound 56, N-(3-chloro-4-fluorobenzyl)-5-(2-chloro-5-(isobutyramidomethyl)benzamido)-1-methyl-1H-indole-2-carboxamide], the IC50 was 59.2 nM.

In the case of `CC(C)C(=O)NCc1ccc(Cl)c(C(=O)Nc2ccc3c(c2)cc(C(=O)Nc2cccc(-c4ccc(C(F)(F)F)cc4)c2)n3C)c1` [Compound 16, 5-(2-chloro-5-(isobutyramidomethyl)benzamido)-1-methyl-N-(4′-(trifluoromethyl)-[1,1′-biphenyl]-3-yl)-1H-indole-2-carboxamide], the IC50 stood at 7.19 nM.

`Cc1cc(F)ccc1NC(=O)c1cc2cc(NC(=O)c3cc(CNC(=O)C(C)C)ccc3Cl)ccc2n1C` [Compound 23, 5-(2-chloro-5-(isobutyramidomethyl)benzamido)-N-(4-fluoro-2-methylphenyl)-1-methyl-1H-indole-2-carboxamide] gave an IC50 of 45 nM.

Consider `CC(C)C(=O)NCc1ccc(Cl)c(C(=O)Nc2ccc3[nH]c(C(=O)Nc4ccc(OC(F)(F)F)cc4)cc3c2)c1` [Compound 74, 5-(2-chloro-5-(isobutyramidomethyl)benzamido)-N-(4-(trifluoromethoxy)phenyl)-1H-indole-2-carboxamide], for which the IC50 was 5.87 nM. This IC50 is about 7.7-fold lower than that of the molecule before.

`CC(C)C(=O)NCc1ccc(Cl)c(C(=O)Nc2ccc3c(c2)cc(C(=O)Nc2cc(F)cc(C(F)(F)F)c2)n3C)c1` [Compound 17, 5-(2-chloro-5-(isobutyramidomethyl)benzamido)-N-(3-fluoro-5-(trifluoromethyl)phenyl)-1-methyl-1H-indole-2-carboxamide] displayed an IC50 of 88.1 nM.

`CC(C)C(=O)NCc1ccc(Cl)c(C(=O)Nc2ccc3c(c2)cc(C(=O)N[C@@H](C)c2ccc4ccccc4c2)n3C)c1` [Compound 31, (S)-5-(2-chloro-5-(isobutyramidomethyl)benzamido)-1-methyl-N-(1-(naphthalen-2-yl)ethyl)-1H-indole-2-carboxamide] showed an IC50 of 9.22 nM.

For the molecule `CC(C)C(=O)NCc1ccc(Cl)c(C(=O)Nc2ccc3c(c2)cc(C(=O)N[C@@H](C)c2ccc4ccccc4c2)n3CC(F)(F)F)c1` [Compound 65, (S)-5-(2-chloro-5-(isobutyramidomethyl)benzamido)-N-(1-(naphthalen-2-yl)ethyl)-1-(2,2,2-trifluoroethyl)-1H-indole-2-carboxamide], half-maximal inhibition (IC50) required 2.71 nM.

As to `CC(C)C(=O)NCc1ccc(Cl)c(C(=O)Nc2ccc3c(c2)cc(C(=O)Nc2ccc(Br)cc2)n3C)c1` [Compound 13, N-(4-bromophenyl)-5-(2-chloro-5-(isobutyramidomethyl)benzamido)-1-methyl-1H-indole-2-carboxamide], it took 26.4 nM to reach half-maximal inhibition (IC50).
